Source: patent US20250367283A1, “MEVALONATE PATHWAY INHIBITOR AS HIGHLY-EFFICIENT VACCINE ADJUVANT” (Tsinghua University, priority 2015, published 2025)

How the values were obtained:
[1] = test system: anti-OVA serum antibody; experiment: OVA immunization with bisphosphonates (Example 15), serum antibody titer; type: in vivo, mice; conditions: 100 μg, intramuscular, 14 days
Experimental: During the immunization, the antigen we used was ovalbumin (OVA). Mice were c57bl/6 female mice at the age of 8 weeks. OVA was formulated at a concentration of 1 mg/ml and bisphosphonate concentration was 1 mg/ml. OVA and bisphosphonates were mixed at a ratio of 1:1 at the time of immunization. Mice were injected intramuscularly with […]. 100 μg of OVA and 100 μg of bisphosphonate per mouse. 14 days after immunization, 100 μl of orbital blood was taken from each mouse.
The whole blood which had been obtained was placed in a 4° C. freezer overnight. The next day, the whole blood at 4° C. was centrifuged at a speed of 6000 rpm at a temperature of 4° C. for 5 minutes. After the centrifugation, the upper serum was carefully taken out and centrifuged again at a speed of 6000 rpm at a temperature of 4° C. for 5 minutes. The upper serum was taken again. Serum was frozen and stored at-20° C. and thawed when tested.
1. Coating: antigen OVA was diluted to a protein content of 2 μg/ml with 0.05M pH 9.6 carbonate coating buffer. Each reaction well of a polystyrene plate was coated with 50 μl of the solution overnight at 4° C. or 2 h at 37° C. […]
7. On an ELISA detector, the OD value was read at 490 nm. Titers of serum antibody were calculated. Serum dilutions were calculated as titers of serum antibody based on an OD value greater than or equal to 1.5 times of the reading of the negative control well.

[2] = test system: Vγ9Vδ2 T cells; experiment: Expansion of Vγ9Vδ2 T cells from PBMCs; type: cell-based, human; conditions: 4 μM bisphosphonate, 200 U/mL rIL-2, day 12
Experimental: Human peripheral blood mononuclear cells (PBMCs) were prepared from healthy volunteers by Ficoll-Hypaque density gradient centrifugation. […] Cells were harvested on day 12 and stained with FITC-anti-CD3 (Miltenyi Biotec) and PE-anti-[…] (Miltenyi Biotec) monoclonal antibodies. Flow cytometry was used for detection. Prism 5.0 was used to analyze the data.

[3] = test system: anti-OVA IgM and IgG antibodies; experiment: Combined adjuvant effect of FPPS inhibitor and TLR agonist, OVA titer; type: in vivo, mice
Experimental: Two compounds, TH-Z93 and Imiquimod, were formulated at a concentration of 4 mg/ml, and OVA antigen at a concentration of 10 mg/ml. When used alone, 5 μl of TH-Z93 or imiquimod was added as an adjuvant and mixed with 10 μl of antigen and 5 μl of PBS. When two adjuvants were used in combination, each of the adjuvants were added in an amount of 5 μl and mixed with 10 μl of antigen, and the total volumes were 20 μl. The mice used are of C57B/6 strain. An equal volume of PBS without any adjuvant was used for mice in the control group. The mice was injected at the soles of the right feet. On Day 7 and Day 14 after immunization, blood was taken from the mice's orbits, and 100 μl was taken for each mouse. The obtained blood was left at 4° C. overnight, and then the serum was separated. The titers of anti-OVA IgM and IgG antibodies in the serum were determined.

[4] = target: HsGGPPS (humanized geranylgeranyl pyrophosphate synthase) (Homo sapiens (Human), UniProt O95749); experiment: HsGGPPS enzyme inhibition test; type: biochemical
Experimental: The inhibitory activities of compounds TH-Z144 and TH-Z145 on GGPPS (geranylgeranyl pyrophosphate synthase) were tested by referring to the expression and purification method for HsGGPPS (humanized geranylgeranyl pyrophosphate synthase) in the reference (Szabo, C. M., et al., Inhibition of Geranylgeranyl Diphosphate Synthase by Bisphosphonates and Diphosphates: A Potential Route to New Bone Antiresorption and Antiparasitic Agents. Journal of Medicinal Chemistry, 2002. 45 (11): p. 2185-2196.) and the method for testing enzyme activity in the reference (Zhang, Y., et al., Lipophilic Bisphosphonates as Dual Farnesyl/Geranylgeranyl Diphosphate Synthase Inhibitors: An X-ray and NMR Investigation. Journal of the American Chemical Society, 2009. 131 (14): p. 5153-5162.) The data of the activity test were as follows: […]

HsGGPPS (humanized geranylgeranyl pyrophosphate synthase), sequence (O95749 whole entry, looked up): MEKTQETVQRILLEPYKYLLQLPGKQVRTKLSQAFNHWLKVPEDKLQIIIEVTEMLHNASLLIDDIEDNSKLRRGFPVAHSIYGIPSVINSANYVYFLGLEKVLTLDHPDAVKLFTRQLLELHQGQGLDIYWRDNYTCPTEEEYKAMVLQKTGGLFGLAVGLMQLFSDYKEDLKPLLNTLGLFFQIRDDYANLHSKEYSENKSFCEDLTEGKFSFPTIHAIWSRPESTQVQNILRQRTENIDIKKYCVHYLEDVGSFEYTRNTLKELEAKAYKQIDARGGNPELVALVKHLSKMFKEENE

CCCCCCOc1ccc2c(c1)ncn2CC(O)(P(=O)(O)O)P(=O)(O)O [TH-Z80]
antibody titers vs conventional bisphosphonates [1]: higher titers of antibodies than conventional bisphosphonates
amplification effect on Vγ9Vδ2 T cells [2]: best amplification effect on Vγ9Vδ2 T cells

CCCCCCCCOc1ccc2c(c1)ncn2CC(O)(P(=O)(O)O)P(=O)(O)O [TH-Z81]
adjuvant effect by carbon chain length of the side chain [1]: strongest effect as an adjuvant

CCCCCCOc1ccnc(NC(P(=O)(O)O)P(=O)(O)O)c1 [TH-Z93, (((4-(hexyloxy)pyridin-2-yl)amino)methylene)bisphosphonic acid]
antibody titers vs PBS control, adjuvant used alone ([3]; soles of right feet): significant high titers
antibody titers vs imiquimod alone ([3]; used alone): significantly superior to those of mice treated with imiquimod alone

(2-(3-(octyloxy)phenyl)ethane-1,1-diyl)bisphosphonic acid [TH-Z145]
IC50 (inhibition of GGPPS) [4]: effectively inhibit the activity of GGPPS
IC50 ([4]; read-out: IC50 (inhibition of GGPPS)): 660 nM
